In patent publication US8940739B2, “Compound of a reverse-turn mimetic and a production method and use therefor” (JW Pharmaceutical Corporation, priority 2010, dated 2015):

Target: cDNA-expressed human hepatic CYP3A4 (Homo sapiens (Human), UniProt P08684)
Experiment: Measurement of CYP (IC50 of P450 CYP3A4), BFC substrate
Format: in vitro ADME
Conditions: 20 minutes
Procedure: The compounds of the present invention had lower P450 CYP3A4 inhibitory activity (higher IC50). Lower CYP3A4 inhibitory activity means that the compounds of the present invention cause fewer side-effects from the pharmacological point of view.
This assay was performed in a 200 l volume in 96-well microtiter plates using cDNA-expressed human hepatic CYP3A4 (supersome, BD Gentest™ #456202). As a substrate for CYP3A4, 7-benzyloxy-4-trifluoromethyl-coumarin (BFC) was used. The compounds of Examples 1 to 5 and the substrate BFC were dissolved in 100% acetonitrile. The final volume of acetonitrile of the incubation mixture was less than 1% (volume/volume). A potassium phosphate buffer (pH 7.4, final concentration 0.1M), MgCl2 (final concentration 8.3 mM), EDTA (final concentration 1.67 mM), an inventive compound stock solution, CYP3A4 supersome, and NADPH (final concentration 0.25 mM) were added to each well. The reaction was initiated by adding the substrate (BFC, final concentration 30 µM) at 37. The incubation was performed for 20 minutes and then the reaction was terminated by the addition of 75 μl of acetonitrile: 0.5 M tris-base=4:1 (volume/volume).
Then, a fluorescent signal was measured using a fluorometer. A BFC metabolite, 7-hydroxy-4-trifluoromethyl-coumarin, was measured using an excitation wavelength of 409 nm and an emission wavelength of 530 nm.

Sequence of cDNA-expressed human hepatic CYP3A4 (P08684 whole entry): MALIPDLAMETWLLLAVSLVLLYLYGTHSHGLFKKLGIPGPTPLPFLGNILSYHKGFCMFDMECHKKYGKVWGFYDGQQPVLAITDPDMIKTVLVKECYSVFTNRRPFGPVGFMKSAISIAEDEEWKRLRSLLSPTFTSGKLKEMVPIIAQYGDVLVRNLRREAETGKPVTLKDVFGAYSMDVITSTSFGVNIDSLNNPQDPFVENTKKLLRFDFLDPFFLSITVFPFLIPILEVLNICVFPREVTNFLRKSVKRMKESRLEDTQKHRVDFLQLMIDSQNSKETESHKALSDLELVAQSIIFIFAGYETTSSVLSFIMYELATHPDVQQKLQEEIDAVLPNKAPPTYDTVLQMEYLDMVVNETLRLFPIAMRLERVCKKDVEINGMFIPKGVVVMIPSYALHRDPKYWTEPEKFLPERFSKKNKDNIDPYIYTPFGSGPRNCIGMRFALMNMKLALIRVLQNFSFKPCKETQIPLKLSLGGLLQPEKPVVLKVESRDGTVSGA

IC50 [µM] | Compound
> 25 | C=CCN1CC(=O)N2[C@@H](Cc3ccc(O)cc3)C(=O)N(Cc3cccc4c(-c5ccc(NC(=O)c6ccc(N(CC)CC)cc6)cc5)cn(C)c34)C[C@@H]2N1C(=O)NCc1ccccc1 [Compound D-57]
2.54 | C=CCN1CC(=O)N2[C@@H](Cc3ccc(O)cc3)C(=O)N(Cc3cccc4c(C(=O)NCCCN5CCN(C)CC5)cn(C)c34)C[C@@H]2N1C(=O)NCc1ccccc1 [Compound F-30]
2.78 | C=CCN1CC(=O)N2[C@@H](Cc3ccc(O)cc3)C(=O)N(Cc3cccc4c(-c5ccc(NC(=O)CCCNCCC(C)=O)cc5)cn(C)c34)C[C@@H]2N1C(=O)NCc1ccccc1 [Compound D-72]
8.5 | C=CCN1CC(=O)N2[C@@H](Cc3ccc(O)cc3)C(=O)N(Cc3cccc4c(C(=O)NCCN5CCOCC5)cn(C)c34)C[C@@H]2N1C(=O)NCc1ccccc1 [Compound F-25]
3.58 | C=CCN1CC(=O)N2[C@@H](Cc3ccc(O)cc3)C(=O)N(Cc3cccc4c(C(=O)NCCC(=O)OCC)cn(C)c34)C[C@@H]2N1C(=O)NCc1ccccc1 [Compound F-22]
10.7 | C=CCN1CC(=O)N2[C@@H](Cc3ccc(O)cc3)C(=O)N(Cc3cccc4c(C(=O)N5CCC(O)CC5)cn(C)c34)C[C@@H]2N1C(=O)NCc1ccccc1 [Compound E-51]
2.19 | C=CCN1CC(=O)N2[C@@H](Cc3ccc(O)cc3)C(=O)N(Cc3cccc4c(-c5ccc(NC(=O)NCC(C)(C)C)nc5)cn(C)c34)C[C@@H]2N1C(=O)NCc1ccccc1 [Compound D-96]
2.23 | C=CCN1CC(=O)N2[C@@H](Cc3ccc(O)cc3)C(=O)N(Cc3cccc4c(C(=O)N5CCC(N(C)C)CC5)cn(C)c34)C[C@@H]2N1C(=O)NCc1ccccc1 [Compound E-61]
> 25 | C=CCN1CC(=O)N2[C@@H](Cc3ccc(O)cc3)C(=O)N(Cc3cccc4c(C(=O)N5CCN(CC6CCCC6)CC5)cn(C)c34)C[C@@H]2N1C(=O)NCc1ccccc1 [Compound E-21]
17.9 | C=CCN1CC(=O)N2[C@@H](Cc3ccc(O)cc3)C(=O)N(Cc3cccc4c(C(=O)NCCCN(C)C)cn(C)c34)C[C@@H]2N1C(=O)NCc1ccccc1 [Compound F-18]
3.16 | C=CCN1CC(=O)N2[C@@H](Cc3ccc(O)cc3)C(=O)N(Cc3cccc4c(C(=O)N(C)C)cn(C)c34)C[C@@H]2N1C(=O)NCc1ccccc1 [Compound F-1]
7.87 | C=CCN1CC(=O)N2[C@@H](Cc3ccc(O)cc3)C(=O)N(Cc3cccc4c(C(=O)NCCN(C)C)cn(C)c34)C[C@@H]2N1C(=O)NCc1ccccc1 [Compound F-13]
8.55 | C=CCN1CC(=O)N2[C@@H](Cc3ccc(O)cc3)C(=O)N(Cc3cccc4c(C(=O)N5CCN(C6CCN(C)CC6)CC5)cn(C)c34)C[C@@H]2N1C(=O)NCc1ccccc1 [Compound E-64]
6.8 | C=CCN1CC(=O)N2[C@@H](Cc3ccc(O)cc3)C(=O)N(Cc3cccc4c(C(=O)NNc5ccccc5)cn(C)c34)C[C@@H]2N1C(=O)NCc1ccccc1 [Compound F-60]
2.39 | C=CCN1CC(=O)N2[C@@H](Cc3ccc(O)cc3)C(=O)N(Cc3cccc4c(C(=O)NN5CCN(C6CCCC6)CC5)cn(C)c34)C[C@@H]2N1C(=O)NCc1ccccc1 [Compound F-59]
22.3 | C=CCN1CC(=O)N2[C@@H](Cc3ccc(O)cc3)C(=O)N(Cc3cccc4c(C(=O)NN5CCOCC5)cn(C)c34)C[C@@H]2N1C(=O)NCc1ccccc1 [Compound F-58]
6.82 | C=CCN1CC(=O)N2[C@@H](Cc3ccc(O)cc3)C(=O)N(Cc3cccc4c(C(=O)N5CCN(CCO)CC5)cn(C)c34)C[C@@H]2N1C(=O)NCc1ccccc1 [Compound E-9]
5.99 | C=CCN1CC(=O)N2[C@@H](Cc3ccc(O)cc3)C(=O)N(Cc3cccc4c(C(=O)N5CC(N6CCOCC6)C5)cn(C)c34)C[C@@H]2N1C(=O)NCc1ccccc1 [Compound E-72]
5.12 | C=CCN1CC(=O)N2[C@@H](Cc3ccc(O)cc3)C(=O)N(Cc3cccc4c(C(=O)NC5CCN(C(C)=O)CC5)cn(C)c34)C[C@@H]2N1C(=O)NCc1ccccc1 [Compound F-64]
12.1 | C=CCN1CC(=O)N2[C@@H](Cc3ccc(O)cc3)C(=O)N(Cc3cccc4c(C(=O)N5CCN6CCN(C=O)CC6C5)cn(C)c34)C[C@@H]2N1C(=O)NCc1ccccc1 (some centres unmarked) [Compound E-48]
3.64 | C=CCN1CC(=O)N2[C@@H](Cc3ccc(O)cc3)C(=O)N(Cc3cccc4c(C(=O)NCCN(CC)CC)cn(C)c34)C[C@@H]2N1C(=O)NCc1ccccc1 [Compound F-14]
4.05 | C=CCN1CC(=O)N2C(Cc3ccc(O)cc3)C(=O)N(Cc3cccc4c(C(=O)Nc5ccc(NCCN(C(C)C)C(C)C)nc5)cn(C)c34)CC2N1C(=O)NCc1ccccc1 (centres unmarked) [Compound G-25]

IC50 [µM] | Compound
4.49 | C=CCN1CC(=O)N2[C@@H](Cc3ccc(O)cc3)C(=O)N(Cc3cccc4c(C(=O)N5CCC6CN(C)CC65)cn(C)c34)C[C@@H]2N1C(=O)NCc1ccccc1 (some centres unmarked) [Compound E-69]
7.8 | C=CCN1CC(=O)N2[C@@H](Cc3ccc(O)cc3)C(=O)N(Cc3cccc4c(C(=O)N(C)CCN5CCN(C)CC5)cn(C)c34)C[C@@H]2N1C(=O)NCc1ccccc1 [Compound F-28]
2.82 | C=CCN1CC(=O)N2[C@@H](Cc3ccc(O)cc3)C(=O)N(Cc3cccc4c(C(=O)N5CCN(S(=O)(=O)CC)CC5)cn(C)c34)C[C@@H]2N1C(=O)NCc1ccccc1 [Compound E-16]
11.3 | C=CCN1CC(=O)N2[C@@H](Cc3ccc(O)cc3)C(=O)N(Cc3cccc4c(C(=O)N5CCN(CCCO)CC5)cn(C)c34)C[C@@H]2N1C(=O)NCc1ccccc1 [Compound E-11]
1.1 | C=CCN1CC(=O)N2[C@@H](Cc3ccc(O)cc3)C(=O)N(Cc3cccc4c(C(=O)NCCCN5CCOCC5)cn(C)c34)C[C@@H]2N1C(=O)NCc1ccccc1 [Compound F-29]
16.2 | C=CCN1CC(=O)N2[C@@H](Cc3ccc(O)cc3)C(=O)N(Cc3cccc4c(C(=O)NCCCO)cn(C)c34)C[C@@H]2N1C(=O)NCc1ccccc1 [Compound F-4]
17.2 | C=CCN1CC(=O)N2[C@@H](Cc3ccc(O)cc3)C(=O)N(Cc3cccc4c(-c5ccc(C(=O)Nc6cccc(OCc7ccccc7)c6)cc5)cn(C)c34)C[C@@H]2N1C(=O)NCc1ccccc1 [Compound D-20]
10.9 | C=CCN1CC(=O)N2[C@@H](Cc3ccc(O)cc3)C(=O)N(Cc3cccc4c(C(=O)N5CCN(C(C)=O)CC5)cn(C)c34)C[C@@H]2N1C(=O)NCc1ccccc1 [Compound E-14]
10.9 | C=CCN1CC(=O)N2[C@@H](Cc3ccc(O)cc3)C(=O)N(Cc3cccc4c(C(=O)N[C@H](C)C(=O)OC)cn(C)c34)C[C@@H]2N1C(=O)NCc1ccccc1 [Compound F-21]
5.53 | C=CCN1CC(=O)N2[C@@H](Cc3ccc(O)cc3)C(=O)N(Cc3cccc4c(C(=O)N5CCN(CCN6CCCCC6)CC5)cn(C)c34)C[C@@H]2N1C(=O)NCc1ccccc1 [Compound E-24]
4.78 | C=CCN1CC(=O)N2[C@@H](Cc3ccc(O)cc3)C(=O)N(Cc3cccc4c(C(=O)NN5CCCCC5)cn(C)c34)C[C@@H]2N1C(=O)NCc1ccccc1 [Compound F-57]
9.3 | C=CCN1CC(=O)N2[C@@H](Cc3ccc(O)cc3)C(=O)N(Cc3cccc4c(C(=O)N5CCN(CCCCO)CC5)cn(C)c34)C[C@@H]2N1C(=O)NCc1ccccc1 [Compound E-12]
16.4 | C=CCN1CC(=O)N2[C@@H](Cc3ccc(O)cc3)C(=O)N(Cc3cccc4c(C(=O)NCCOCCO)cn(C)c34)C[C@@H]2N1C(=O)NCc1ccccc1 [Compound F-7]
6.02 | C=CCN1CC(=O)N2[C@@H](Cc3ccc(O)cc3)C(=O)N(Cc3cccc4c(C(=O)N5CCC(NC(=O)c6ccc(N7CCN(C)CC7)cc6)CC5)cn(C)c34)C[C@@H]2N1C(=O)NCc1ccccc1 [Compound E-60]
17.4 | C=CCN1CC(=O)N2[C@@H](Cc3ccc(O)cc3)C(=O)N(Cc3cccc4c(C(=O)NN5CCCC5)cn(C)c34)C[C@@H]2N1C(=O)NCc1ccccc1 [Compound F-56]
9.71 | C=CCN1CC(=O)N2[C@@H](Cc3ccc(O)cc3)C(=O)N(Cc3cccc4c(C(=O)NC5CCN(CCCO)CC5)cn(C)c34)C[C@@H]2N1C(=O)NCc1ccccc1 [Compound F-63]
> 25 | C=CCN1CC(=O)N2[C@@H](Cc3ccc(O)cc3)C(=O)N(Cc3cccc4c(-c5cccc(C(=O)Nc6ccc(N7CCN(c8ccc(OC)cc8)CC7)cc6)c5)cn(C)c34)C[C@@H]2N1C(=O)NCc1ccccc1 [Compound D-25]
11.5 | C=CCN1CC(=O)N2[C@@H](Cc3ccc(O)cc3)C(=O)N(Cc3cccc4c(C(=O)NCCN5CCN(C)CC5)cn(C)c34)C[C@@H]2N1C(=O)NCc1ccccc1 [Compound F-27]
21.7 | C=CCN1CC(=O)N2[C@@H](Cc3ccc(O)cc3)C(=O)N(Cc3cccc4c(-c5ccc(NC(=O)CCCCCCC)cc5)cn(C)c34)C[C@@H]2N1C(=O)NCc1ccccc1 [Compound D-52]
2.89 | C=CCN1CC(=O)N2[C@@H](Cc3ccc(O)cc3)C(=O)N(Cc3cccc4c(C(=O)N(CCO)CCNCCO)cn(C)c34)C[C@@H]2N1C(=O)NCc1ccccc1 [Compound F-20]
5.35 | C=CCN1CC(=O)N2C(Cc3ccc(O)cc3)C(=O)N(Cc3cccc4c(C(=O)Nc5ccc(N(CCN(CC)CC)CCN(CC)CC)nc5)cn(C)c34)CC2N1C(=O)NCc1ccccc1 (centres unmarked) [Compound G-26]

Compound | IC50 [µM]
C=CCN1CC(=O)N2[C@@H](Cc3ccc(O)cc3)C(=O)N(Cc3cccc4c(C(=O)N5CCC(NC(=O)CCO)CC5)cn(C)c34)C[C@@H]2N1C(=O)NCc1ccccc1 [Compound E-57] | 7.65
